According to ChEMBL document CHEMBL5576083, “Structure-Based Design and Synthesis of Covalent Inhibitors for Deubiquitinase and Acetyltransferase ChlaDUB1 of Chlamydia trachomatis” (J Med Chem, 2024):
In brackets after ≈: the same amount, converted by molar mass. Activity calls are given as the source filed them. The rule behind the calls is not given here.

Key:
[1] = Covalent inhibition of C-terminal 6His-tagged Chlamydia trachomatis DUB1 (130 to 401 residues) expressed in Escherichia coli Rosetta 2 (DE3) cells using Ub-Rh110Gly as fluorogenic substrate preincubated for 1 hr followed by substrate addition by plate reader analysis
Chlamydia trachomatis [2] = assay: Anti-chlamydial activity against Chlamydia trachomatis serovar L2 infected in human HEp-2 cells assessed as inhibition of chlamydial inclusion incubated for 24 hrs by Alexa488/DAPI staining based immunofluorescence assay; type: functional, organism-based; conditions: serovar L2, HEp-2, 24 h
Chlamydia trachomatis [3] = assay: (§1) Binding affinity to C-terminal 6His-tagged Chlamydia trachomatis DUB1 (130 to 401 residues) expressed in Escherichia coli Rosetta 2 (DE3) cells using Ub-Rh110Gly as fluorogenic substrate assessed as ratio of Kinact/Ki preincubated for 60 mins followed by substrate addition measured after 360 mins by plate reader analysis; conditions: time 420.0 min
Chlamydia trachomatis [4] = assay: as §1, with “Kinact” for “ratio of Kinact/Ki”; conditions: time 420.0 min
[5] = as §1, with “inhibition constant” for “ratio of Kinact/Ki”
[6] = biological target: Ubiquitin carboxyl-terminal hydrolase 7 (Homo sapiens) (UniProt Q93009); assay: Binding affinity to USP7 (208 to 1102 residues) (unknown origin) expressed in Sf9 insect cells assessed as ratio of Kinact/Ki incubated for 3 hrs by fluorescence based analysis
Ubiquitin carboxyl-terminal hydrolase 7 (Homo sapiens), sequence (Q93009 whole entry, looked up, the tested form may be a part): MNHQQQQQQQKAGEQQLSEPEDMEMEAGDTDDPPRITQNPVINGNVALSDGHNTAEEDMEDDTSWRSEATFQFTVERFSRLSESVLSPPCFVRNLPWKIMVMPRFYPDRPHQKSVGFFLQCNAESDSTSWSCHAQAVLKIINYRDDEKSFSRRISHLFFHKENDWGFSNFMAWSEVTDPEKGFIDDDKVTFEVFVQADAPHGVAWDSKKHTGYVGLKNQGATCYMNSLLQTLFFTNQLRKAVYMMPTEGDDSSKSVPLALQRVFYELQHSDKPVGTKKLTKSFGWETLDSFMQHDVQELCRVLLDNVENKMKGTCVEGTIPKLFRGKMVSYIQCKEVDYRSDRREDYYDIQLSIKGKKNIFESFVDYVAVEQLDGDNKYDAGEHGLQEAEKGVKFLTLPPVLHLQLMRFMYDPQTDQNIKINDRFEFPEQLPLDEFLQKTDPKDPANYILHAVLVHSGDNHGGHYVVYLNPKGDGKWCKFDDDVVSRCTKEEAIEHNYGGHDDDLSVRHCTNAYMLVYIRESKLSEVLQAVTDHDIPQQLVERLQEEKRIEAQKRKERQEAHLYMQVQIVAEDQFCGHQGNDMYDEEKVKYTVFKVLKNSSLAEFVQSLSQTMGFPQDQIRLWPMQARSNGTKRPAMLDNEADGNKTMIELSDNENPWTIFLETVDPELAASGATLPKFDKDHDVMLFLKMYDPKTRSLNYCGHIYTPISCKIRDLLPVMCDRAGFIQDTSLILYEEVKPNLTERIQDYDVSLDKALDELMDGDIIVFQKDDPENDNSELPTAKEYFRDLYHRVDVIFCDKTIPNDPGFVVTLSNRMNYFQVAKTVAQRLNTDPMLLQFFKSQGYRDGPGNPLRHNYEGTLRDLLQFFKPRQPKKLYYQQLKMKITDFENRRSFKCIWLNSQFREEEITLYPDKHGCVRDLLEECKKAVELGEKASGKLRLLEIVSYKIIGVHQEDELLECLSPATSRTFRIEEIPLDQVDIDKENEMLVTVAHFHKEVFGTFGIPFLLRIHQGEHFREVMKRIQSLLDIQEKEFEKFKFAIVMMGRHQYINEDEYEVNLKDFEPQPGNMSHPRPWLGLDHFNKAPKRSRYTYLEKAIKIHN

Chlamydia trachomatis [7] = assay: Antimicrobial activity against Chlamydia trachomatis serovar L2 infected in human HeLa cells assessed as reduction in microbial progeny at 3.13 ug/ml measured after 48 hrs of post-infection by immunofluorescence analysis; type: functional; parameters: scale not given: the % may be the effect or the level left; conditions: dose 3.13 µg/ml
Chlamydia trachomatis [8] = assay: Antimicrobial activity against Chlamydia trachomatis serovar L2 infected in human HeLa cells assessed as reduction in inclusion circumference at 6.25 ug/ml measured after 24 hrs of post-infection by microscopic analysis (reference value: 33.2 micrometer); type: functional; conditions: dose 6.25 µg/ml
Chlamydia trachomatis [9] = assay: Antimicrobial activity against Chlamydia trachomatis serovar L2 infected in human HeLa cells assessed as reduction in microbial progeny at 1.56 ug/ml measured after 24 hrs of post-infection by immunofluorescence analysis; type: functional; parameters: scale not given: the % may be the effect or the level left; conditions: dose 1.56 µg/ml
Chlamydia trachomatis [10] = assay: Antimicrobial activity against Chlamydia trachomatis serovar L2 infected in human HeLa cells assessed as reduction in inclusion circumference at 12.5 ug/ml measured after 24 hrs of post-infection by microscopic analysis (reference value: 33.2 micrometer); type: functional; conditions: dose 12.5 µg/ml
Chlamydia trachomatis [11] = assay: Antimicrobial activity against Chlamydia trachomatis serovar L2 infected in human HeLa cells assessed as reduction in inclusion area at 12.5 ug/ml measured after 24 hrs of post-infection by microscopic analysis (reference value: 79.96 microm2); type: functional; conditions: dose 12.5 µg/ml
Chlamydia trachomatis [12] = assay: Antimicrobial activity against Chlamydia trachomatis serovar L2 infected in human HeLa cells assessed as reduction in microbial progeny at 6.25 ug/ml measured after 24 hrs of post-infection by immunofluorescence analysis; type: functional; parameters: scale not given: the % may be the effect or the level left; conditions: dose 6.25 µg/ml
Chlamydia trachomatis [13] = assay: Antimicrobial activity against Chlamydia trachomatis serovar L2 infected in human HeLa cells assessed as reduction in microbial progeny at 1.56 ug/ml measured after 48 hrs of post-infection by immunofluorescence analysis; type: functional; parameters: scale not given: the % may be the effect or the level left; conditions: dose 1.56 µg/ml
Chlamydia trachomatis [14] = assay: Antimicrobial activity against Chlamydia trachomatis serovar L2 infected in human HeLa cells assessed as reduction in microbial progeny at 3.13 ug/ml measured after 24 hrs of post-infection by immunofluorescence analysis; type: functional; parameters: scale not given: the % may be the effect or the level left; conditions: dose 3.13 µg/ml
Chlamydia trachomatis [15] = assay: Antimicrobial activity against Chlamydia trachomatis serovar L2 infected in human HeLa cells assessed as reduction in microbial progeny at 12.5 ug/ml measured after 24 hrs of post-infection by immunofluorescence analysis; type: functional; parameters: scale not given: the % may be the effect or the level left; conditions: dose 12.5 µg/ml
Chlamydia trachomatis [16] = assay: Antimicrobial activity against Chlamydia trachomatis serovar L2 infected in human HeLa cells assessed as reduction in inclusion area at 6.25 ug/ml measured after 24 hrs of post-infection by microscopic analysis (reference value: 79.96 microm2); type: functional; conditions: dose 6.25 µg/ml
[17] = biological target: T1, Ubiquitin carboxyl-terminal hydrolase isozyme L1 (Homo sapiens, UniProt P09936); assay: Inhibition of 6His-tagged human UCHL1 using Ub-Rh110Gly as fluorogenic substrate preincubated for 1 hr followed by substrate addition by plate reader analysis
T1 sequence (P09936 whole entry): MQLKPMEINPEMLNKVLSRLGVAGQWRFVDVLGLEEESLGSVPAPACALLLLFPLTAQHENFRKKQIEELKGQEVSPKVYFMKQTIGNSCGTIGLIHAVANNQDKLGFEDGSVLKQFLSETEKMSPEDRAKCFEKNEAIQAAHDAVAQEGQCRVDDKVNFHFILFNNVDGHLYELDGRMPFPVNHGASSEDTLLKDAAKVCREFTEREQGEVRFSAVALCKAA

[18] = biological target: Ubiquitin carboxyl-terminal hydrolase isozyme L1 (Homo sapiens) (UniProt P09936); assay: Binding affinity to human UCHL1 (1 to 223 residues) expressed in Escherichia coli Rosetta 2 (DE3) cells using Ub-Rh110Gly as fluorogenic substrate assessed as ratio of Kinact/Ki by fluorescence based analysis
Chlamydia trachomatis [19] = assay: Antimicrobial activity against Chlamydia trachomatis serovar L2 infected in human HeLa cells assessed as reduction in inclusion forming unit at 1 ug/ml measured at 24 to 48 hrs of post-infection by immunofluorescence based microscopic analysis; type: functional, organism-based; conditions: dose 1.0 µg/ml, time 24-48 hrs
Chlamydia trachomatis [20] = assay: Antimicrobial activity against Chlamydia trachomatis serovar L2 infected in human HeLa cells assessed as fold increase in inclusion forming unit at 1 ug/ml measured after 48 hrs of post-infection by immunofluorescence based microscopic analysis; type: functional; conditions: dose 1 µg/ml

Row | Compound | IC50 [1] [µM] | pIC50 [1] | IC50 (Chlamydia trachomatis [2]) [µg/mL] | further results
1 | N#Cc1ncc(C(=O)NCc2ccc(C(=O)NCC3CC3)cc2)cn1 | 37 | 4.43 | 47.7 (≈ 142 µM) | –
2 | N#Cc1ncc(C(=O)NCc2ccc(C(=O)N3CCc4ccccc4C3)cc2)cn1 | 16 | 4.79 | – | –
3 | C=CS(=O)(=O)Nc1ccccc1-c1ccc(C(=O)N2CCC(O)(Cn3cnc4c(cnn4C)c3=O)CC2)cc1 | – | – | – | Ratio [6]: 66 M⁻¹ s⁻¹
4 | CCOc1ccccc1CNC(=O)c1ccc(CNC(=O)c2cnc(C#N)nc2)cc1 | 13 | 4.9 | 15.8 (≈ 38 µM) | –
5 | N#Cc1ncc(C(=O)NCc2ccc(C(=O)NCc3nccs3)cc2)cn1 | 31 | 4.51 | – | –
6 | N#Cc1ncc(C(=O)NCc2ccc(C(=O)NCC3CCCCC3)cc2)cn1 | 23 | 4.64 | – | –
7 | Cc1ccc(CNC(=O)c2ccc(CNC(=O)c3cnc(C#N)nc3)cc2)cc1 | 241 | 3.62 | – | –
8 | CC(C)(C)N(Cc1ccc(C(=O)Cc2ccccc2)cc1)C(=O)c1cnc(C#N)nc1 | 41 | 4.13 | 9.88 (≈ 24 µM) | Activity (Chlamydia trachomatis [7]): 51.5%; Activity (Chlamydia trachomatis [8]): 24.83 um; Activity (Chlamydia trachomatis [9]): 16.5%; Activity (Chlamydia trachomatis [10]): 18.05 um; Activity (Chlamydia trachomatis [11]): 23.3 um2; Activity (Chlamydia trachomatis [12]): 38.5%; Activity (Chlamydia trachomatis [13]): 55.5%; Activity (Chlamydia trachomatis [14]): 31.5%; Activity (Chlamydia trachomatis [15]): 81%; Activity (Chlamydia trachomatis [16]): 44.93 um2
9 | Cc1nn(C)c2cc(-c3ccc(-n4cnc(NC(=O)[C@H]5CCN(C#N)C5)c4)cc3)ccc12 | – | – | – | IC50 [17]: < 1 µM
10 | COc1ccc(CNC(=O)c2ccc(CNC(=O)c3cnc(C#N)nc3)cc2)cc1 | 521 | 3.28 | – | –
11 | C#CCCCNC(=O)c1ccc(-n2cnc(NC(=O)[C@H]3CCN(C#N)C3)c2)cc1 | – | – | – | Ratio [18]: 681 M⁻¹ s⁻¹
12 | COc1ccccc1CNC(=O)c1ccc(CNC(=O)c2cnc(C#N)nc2)cc1 | 31 | 4.5 | 16.9 (≈ 42.1 µM) | Ki [5]: 276 µM
13 | CCCN(CCC)C(=O)c1ccc(CNC(=O)c2cnc(C#N)nc2)cc1 | 74 | 4.13 | – | –
14 | C[C@H]1c2cccc(O)c2C(=O)C2=C(O)[C@]3(O)C(=O)C(C(N)=O)=C(O)[C@@H](N(C)C)[C@@H]3[C@@H](O)[C@@H]21 [DOXYCYCLINE ANHYDROUS] | – | – | 0.018 (≈ 0.0405 µM) | Activity (Chlamydia trachomatis [19]): Active; fold change (FC) (Chlamydia trachomatis [20]): 5.3
15 | N#Cc1ncc(C(=O)NCc2ccccc2)cn1 | 154 | 3.82 | – | –

The next lines start with results.

Row | IC50 [1] [µM] | pIC50 [1] | IC50 (Chlamydia trachomatis [2]) [µg/mL] | Compound | further results
16 | 35 | 4.46 | 28.4 (≈ 72.2 µM) | CC(C)CN(CC(C)C)C(=O)c1ccc(CNC(=O)c2cnc(C#N)nc2)cc1 | –
17 | 64 | 4.2 | – | N#Cc1ncc(C(=O)NCc2ccc(C(=O)NCCc3ccccc3)cc2)cn1 | –
18 | 14 | 4.86 | – | N#Cc1ncc(C(=O)NCc2ccc(C(=O)CCN3CCOCC3)cc2)cn1 | Ratio (Chlamydia trachomatis [3]): 13.7 M⁻¹ s⁻¹; Kinact (Chlamydia trachomatis [4]): 0.363 min⁻¹; Ki [5]: 441 µM
19 | 51 | 4.29 | – | N#Cc1ncc(C(=O)NCc2ccc(C(=O)NCCN3CCOCC3)cc2)cn1 | –
20 | 25 | 4.6 | 40.7 (≈ 116 µM) | N#Cc1ncc(C(=O)NCc2ccc(C(=O)NCCC3CC3)cc2)cn1 | –
21 | 81 | 4.09 | > 50 | COc1cccc(CNC(=O)c2ccc(CNC(=O)c3cnc(C#N)nc3)cc2)c1 | –
22 | 21 | 4.67 | 38.9 (≈ 111 µM) | N#Cc1ncc(C(=O)NCc2ccc(C(=O)NCC3CCC3)cc2)cn1 | –
23 | 24 | 4.63 | – | N#Cc1ncc(C(=O)NCc2ccc(C(=O)Cc3ccccc3)cc2)cn1 | –
24 | 27 | 4.57 | 19.4 (≈ 52.2 µM) | N#Cc1ncc(C(=O)NCc2ccc(C(=O)NCc3ccccc3)cc2)cn1 | Ki [5]: 226 µM
25 | 21 | 4.68 | 17.3 (≈ 44.9 µM) | Cc1cccc(CNC(=O)c2ccc(CNC(=O)c3cnc(C#N)nc3)cc2)c1 | –
26 | 131 | 3.88 | – | Cn1c(-c2ccc(CNC(=O)c3cnc(C#N)nc3)cc2)nc2ccccc21 | –
27 | 18 | 4.75 | 16.9 (≈ 43.8 µM) | Cc1ccccc1CNC(=O)c1ccc(CNC(=O)c2cnc(C#N)nc2)cc1 | –
28 | 74 | 4.13 | 47.4 (≈ 169 µM) | CC(=O)c1ccc(CNC(=O)c2cnc(C#N)nc2)cc1 | –
